Assay results reported in ChEMBL document CHEMBL4507291 (2021).

Legend:
[1] = target: Ankyrin repeat and protein kinase domain-containing protein 1 (Homo sapiens) (UniProt Q8NFD2)
[2] = target: Tyrosine-protein kinase receptor UFO (Homo sapiens) (UniProt P30530)
[3] = target: Dual specificity tyrosine-phosphorylation-regulated kinase 1B (Homo sapiens) (UniProt Q9Y463)
[4] = target: T1, Ephrin type-A receptor 3 (Homo sapiens) (UniProt P29320)
T1 sequence (whole entry): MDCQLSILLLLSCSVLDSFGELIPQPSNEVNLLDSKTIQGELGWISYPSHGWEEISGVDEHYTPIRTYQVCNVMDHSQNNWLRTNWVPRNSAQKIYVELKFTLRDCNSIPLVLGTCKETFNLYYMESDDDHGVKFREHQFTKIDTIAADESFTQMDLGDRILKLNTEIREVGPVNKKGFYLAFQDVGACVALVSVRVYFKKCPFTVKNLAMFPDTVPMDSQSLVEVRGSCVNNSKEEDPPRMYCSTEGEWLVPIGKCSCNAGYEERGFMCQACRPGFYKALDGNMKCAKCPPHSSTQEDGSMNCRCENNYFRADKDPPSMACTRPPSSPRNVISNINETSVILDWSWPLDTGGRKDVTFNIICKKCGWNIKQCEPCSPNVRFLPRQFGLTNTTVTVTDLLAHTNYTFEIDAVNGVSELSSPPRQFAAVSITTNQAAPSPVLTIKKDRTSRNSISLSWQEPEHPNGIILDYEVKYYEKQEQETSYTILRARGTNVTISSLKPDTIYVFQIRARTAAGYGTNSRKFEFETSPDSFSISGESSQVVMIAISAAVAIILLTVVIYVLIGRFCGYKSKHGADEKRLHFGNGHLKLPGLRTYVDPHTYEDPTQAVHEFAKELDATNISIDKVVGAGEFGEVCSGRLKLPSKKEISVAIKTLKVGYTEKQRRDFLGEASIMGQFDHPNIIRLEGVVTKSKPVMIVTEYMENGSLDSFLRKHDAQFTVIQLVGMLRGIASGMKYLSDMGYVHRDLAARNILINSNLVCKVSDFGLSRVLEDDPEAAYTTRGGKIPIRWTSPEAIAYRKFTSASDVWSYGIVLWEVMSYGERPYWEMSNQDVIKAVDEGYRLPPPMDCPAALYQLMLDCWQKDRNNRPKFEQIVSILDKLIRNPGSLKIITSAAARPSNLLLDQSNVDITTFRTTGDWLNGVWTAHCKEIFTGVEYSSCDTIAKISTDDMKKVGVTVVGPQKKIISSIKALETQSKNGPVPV

[5] = target: T2, Ephrin type-B receptor 3 (Homo sapiens) (UniProt P54753)
T2 sequence (whole entry): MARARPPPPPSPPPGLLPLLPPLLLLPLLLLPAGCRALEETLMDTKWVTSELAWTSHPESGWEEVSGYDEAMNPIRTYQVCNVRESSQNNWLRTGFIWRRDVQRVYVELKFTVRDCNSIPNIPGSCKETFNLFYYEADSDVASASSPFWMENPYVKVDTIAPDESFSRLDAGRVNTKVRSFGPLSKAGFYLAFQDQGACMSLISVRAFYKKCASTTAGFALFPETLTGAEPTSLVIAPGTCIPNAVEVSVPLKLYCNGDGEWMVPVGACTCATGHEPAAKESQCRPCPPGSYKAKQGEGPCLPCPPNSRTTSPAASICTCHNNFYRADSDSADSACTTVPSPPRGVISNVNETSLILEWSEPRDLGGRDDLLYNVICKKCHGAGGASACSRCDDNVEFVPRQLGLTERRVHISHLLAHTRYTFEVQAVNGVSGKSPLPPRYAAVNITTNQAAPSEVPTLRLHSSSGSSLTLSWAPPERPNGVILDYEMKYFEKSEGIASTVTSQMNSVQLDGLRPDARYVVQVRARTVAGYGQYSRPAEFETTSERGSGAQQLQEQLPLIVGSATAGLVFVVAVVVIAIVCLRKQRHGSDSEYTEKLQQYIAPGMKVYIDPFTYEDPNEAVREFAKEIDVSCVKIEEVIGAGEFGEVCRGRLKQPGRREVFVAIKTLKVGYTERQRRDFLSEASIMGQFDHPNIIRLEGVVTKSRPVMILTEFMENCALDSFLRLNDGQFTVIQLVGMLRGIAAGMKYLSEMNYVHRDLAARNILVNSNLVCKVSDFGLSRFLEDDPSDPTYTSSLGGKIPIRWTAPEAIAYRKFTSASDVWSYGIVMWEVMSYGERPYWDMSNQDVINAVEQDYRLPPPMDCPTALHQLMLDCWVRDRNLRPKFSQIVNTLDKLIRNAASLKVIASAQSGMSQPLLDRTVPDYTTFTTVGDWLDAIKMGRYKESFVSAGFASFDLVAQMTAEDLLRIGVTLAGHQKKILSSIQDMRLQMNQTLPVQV

[6] = target: G protein-coupled receptor kinase 4 (Homo sapiens) (UniProt P32298)
Chain of G protein-coupled receptor kinase 4 (Homo sapiens) (P32298 whole entry, looked up): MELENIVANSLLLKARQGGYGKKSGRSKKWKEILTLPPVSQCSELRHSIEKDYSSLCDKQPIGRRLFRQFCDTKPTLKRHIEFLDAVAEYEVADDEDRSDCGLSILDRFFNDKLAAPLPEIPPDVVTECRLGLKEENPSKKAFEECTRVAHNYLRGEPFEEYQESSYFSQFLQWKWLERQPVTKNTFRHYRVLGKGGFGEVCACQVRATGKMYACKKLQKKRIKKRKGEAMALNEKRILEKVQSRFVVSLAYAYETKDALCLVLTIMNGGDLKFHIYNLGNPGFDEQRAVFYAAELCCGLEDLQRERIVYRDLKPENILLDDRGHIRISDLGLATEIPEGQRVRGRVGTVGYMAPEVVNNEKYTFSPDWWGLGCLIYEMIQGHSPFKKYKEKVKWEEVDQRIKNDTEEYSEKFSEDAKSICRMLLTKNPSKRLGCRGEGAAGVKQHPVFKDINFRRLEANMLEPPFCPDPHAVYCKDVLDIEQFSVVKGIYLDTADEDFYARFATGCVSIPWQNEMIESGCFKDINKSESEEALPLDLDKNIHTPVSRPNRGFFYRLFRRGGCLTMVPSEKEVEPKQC

[7] = target: T3, Inhibitor of nuclear factor kappa-B kinase subunit alpha (Homo sapiens) (UniProt O15111)
T3 sequence (whole entry): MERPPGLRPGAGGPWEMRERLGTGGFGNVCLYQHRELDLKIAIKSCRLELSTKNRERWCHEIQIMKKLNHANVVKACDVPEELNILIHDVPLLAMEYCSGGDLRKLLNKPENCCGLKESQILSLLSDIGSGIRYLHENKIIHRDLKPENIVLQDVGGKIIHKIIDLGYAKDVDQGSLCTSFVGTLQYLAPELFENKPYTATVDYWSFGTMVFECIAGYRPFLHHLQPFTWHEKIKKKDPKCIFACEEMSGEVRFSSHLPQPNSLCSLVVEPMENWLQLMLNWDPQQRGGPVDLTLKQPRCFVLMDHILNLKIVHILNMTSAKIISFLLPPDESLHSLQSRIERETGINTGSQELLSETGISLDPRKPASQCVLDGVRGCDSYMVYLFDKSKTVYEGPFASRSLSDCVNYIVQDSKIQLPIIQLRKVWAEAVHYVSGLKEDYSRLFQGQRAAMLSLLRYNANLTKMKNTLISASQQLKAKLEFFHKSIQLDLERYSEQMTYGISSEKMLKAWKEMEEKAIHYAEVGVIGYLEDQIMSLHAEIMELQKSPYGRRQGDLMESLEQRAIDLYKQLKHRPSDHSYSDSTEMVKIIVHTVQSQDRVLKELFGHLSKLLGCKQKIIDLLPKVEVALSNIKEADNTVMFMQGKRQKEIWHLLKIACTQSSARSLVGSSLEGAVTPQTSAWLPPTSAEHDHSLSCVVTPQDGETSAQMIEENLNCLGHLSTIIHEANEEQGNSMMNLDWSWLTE

[8] = tested on: Phosphatidylinositol 4,5-bisphosphate 3-kinase catalytic subunit alpha isoform (Homo sapiens), P42336 [I800L]
Chain of Phosphatidylinositol 4,5-bisphosphate 3-kinase catalytic subunit alpha isoform (Homo sapiens), P42336 [I800L] (P42336 whole entry I800L, canonical isoform): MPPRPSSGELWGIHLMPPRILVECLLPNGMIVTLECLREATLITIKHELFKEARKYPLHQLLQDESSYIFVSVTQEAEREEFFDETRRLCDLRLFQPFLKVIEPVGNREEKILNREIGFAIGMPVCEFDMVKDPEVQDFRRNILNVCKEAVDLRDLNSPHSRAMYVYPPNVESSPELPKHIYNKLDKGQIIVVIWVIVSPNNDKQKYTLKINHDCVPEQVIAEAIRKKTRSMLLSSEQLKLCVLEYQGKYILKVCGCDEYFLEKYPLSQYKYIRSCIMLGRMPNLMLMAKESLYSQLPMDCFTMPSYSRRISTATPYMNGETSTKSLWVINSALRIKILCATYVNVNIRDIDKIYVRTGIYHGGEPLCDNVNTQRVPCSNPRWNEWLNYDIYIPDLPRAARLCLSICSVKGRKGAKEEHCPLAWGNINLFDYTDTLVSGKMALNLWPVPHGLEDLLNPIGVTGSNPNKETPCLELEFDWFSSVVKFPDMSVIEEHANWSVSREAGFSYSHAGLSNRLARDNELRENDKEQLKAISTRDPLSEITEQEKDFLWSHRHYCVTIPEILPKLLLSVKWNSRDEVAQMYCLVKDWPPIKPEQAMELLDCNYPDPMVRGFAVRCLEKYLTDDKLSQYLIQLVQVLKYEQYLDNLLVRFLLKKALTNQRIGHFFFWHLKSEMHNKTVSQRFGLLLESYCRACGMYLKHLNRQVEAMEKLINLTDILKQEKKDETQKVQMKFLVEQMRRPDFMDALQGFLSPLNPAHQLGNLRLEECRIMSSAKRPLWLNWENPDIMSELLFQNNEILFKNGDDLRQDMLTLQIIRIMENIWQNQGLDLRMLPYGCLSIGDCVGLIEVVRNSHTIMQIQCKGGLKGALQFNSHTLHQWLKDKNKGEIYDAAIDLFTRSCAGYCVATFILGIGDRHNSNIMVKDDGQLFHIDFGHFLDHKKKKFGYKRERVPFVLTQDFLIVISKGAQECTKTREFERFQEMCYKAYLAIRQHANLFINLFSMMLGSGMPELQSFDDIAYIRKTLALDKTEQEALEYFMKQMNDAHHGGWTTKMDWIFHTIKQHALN

[9] = Compound concentration 1000.0 nM
[10] = Compound concentration 100.0 nM

Measured: residual activity

Chain of Tyrosine-protein kinase receptor UFO (Homo sapiens) (P30530 whole entry): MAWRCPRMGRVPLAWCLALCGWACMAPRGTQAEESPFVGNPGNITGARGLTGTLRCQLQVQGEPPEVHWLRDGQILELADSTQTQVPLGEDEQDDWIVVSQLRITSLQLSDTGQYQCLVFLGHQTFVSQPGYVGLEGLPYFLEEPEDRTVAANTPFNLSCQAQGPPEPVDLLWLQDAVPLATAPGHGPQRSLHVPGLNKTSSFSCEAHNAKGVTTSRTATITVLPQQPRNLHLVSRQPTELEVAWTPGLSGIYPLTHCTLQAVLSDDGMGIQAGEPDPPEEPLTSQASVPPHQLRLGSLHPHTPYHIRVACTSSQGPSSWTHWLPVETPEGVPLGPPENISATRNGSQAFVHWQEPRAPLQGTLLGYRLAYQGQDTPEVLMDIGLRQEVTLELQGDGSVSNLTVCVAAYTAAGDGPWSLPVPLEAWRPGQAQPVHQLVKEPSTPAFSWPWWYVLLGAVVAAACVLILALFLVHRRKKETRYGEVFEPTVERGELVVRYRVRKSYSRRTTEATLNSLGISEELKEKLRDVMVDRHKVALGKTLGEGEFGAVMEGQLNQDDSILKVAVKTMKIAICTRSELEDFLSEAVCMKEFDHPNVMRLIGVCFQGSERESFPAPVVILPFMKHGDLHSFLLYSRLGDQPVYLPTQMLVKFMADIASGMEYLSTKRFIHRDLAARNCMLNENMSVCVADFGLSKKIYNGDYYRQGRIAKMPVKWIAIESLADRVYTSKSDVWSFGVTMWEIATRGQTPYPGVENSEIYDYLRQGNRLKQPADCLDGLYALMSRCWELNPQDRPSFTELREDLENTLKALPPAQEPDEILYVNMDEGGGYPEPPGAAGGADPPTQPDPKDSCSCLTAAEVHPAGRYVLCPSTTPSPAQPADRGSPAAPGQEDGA
Chain of Ankyrin repeat and protein kinase domain-containing protein 1 (Homo sapiens) (Q8NFD2 whole entry, the tested form may be a part): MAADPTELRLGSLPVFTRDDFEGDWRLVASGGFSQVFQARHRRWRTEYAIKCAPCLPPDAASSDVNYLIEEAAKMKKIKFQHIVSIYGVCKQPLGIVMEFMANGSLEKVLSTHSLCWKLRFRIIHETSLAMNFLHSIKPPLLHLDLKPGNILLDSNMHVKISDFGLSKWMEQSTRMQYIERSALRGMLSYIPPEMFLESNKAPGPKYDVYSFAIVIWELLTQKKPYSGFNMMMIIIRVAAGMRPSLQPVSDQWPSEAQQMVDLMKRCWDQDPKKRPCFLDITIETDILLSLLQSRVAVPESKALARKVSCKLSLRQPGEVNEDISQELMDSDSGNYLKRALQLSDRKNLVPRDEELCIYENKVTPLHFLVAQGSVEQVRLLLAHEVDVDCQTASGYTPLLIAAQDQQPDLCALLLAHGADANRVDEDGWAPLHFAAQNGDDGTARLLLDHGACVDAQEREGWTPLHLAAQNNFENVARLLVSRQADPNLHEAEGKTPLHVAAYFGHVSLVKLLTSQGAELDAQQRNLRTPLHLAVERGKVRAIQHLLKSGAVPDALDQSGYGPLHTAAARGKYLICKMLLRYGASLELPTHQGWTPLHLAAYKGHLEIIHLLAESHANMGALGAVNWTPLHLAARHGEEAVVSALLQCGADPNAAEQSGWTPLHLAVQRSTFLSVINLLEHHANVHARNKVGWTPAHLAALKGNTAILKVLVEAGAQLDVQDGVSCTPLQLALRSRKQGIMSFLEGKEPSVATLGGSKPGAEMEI
Chain of Dual specificity tyrosine-phosphorylation-regulated kinase 1B (Homo sapiens) (Q9Y463 whole entry, looked up): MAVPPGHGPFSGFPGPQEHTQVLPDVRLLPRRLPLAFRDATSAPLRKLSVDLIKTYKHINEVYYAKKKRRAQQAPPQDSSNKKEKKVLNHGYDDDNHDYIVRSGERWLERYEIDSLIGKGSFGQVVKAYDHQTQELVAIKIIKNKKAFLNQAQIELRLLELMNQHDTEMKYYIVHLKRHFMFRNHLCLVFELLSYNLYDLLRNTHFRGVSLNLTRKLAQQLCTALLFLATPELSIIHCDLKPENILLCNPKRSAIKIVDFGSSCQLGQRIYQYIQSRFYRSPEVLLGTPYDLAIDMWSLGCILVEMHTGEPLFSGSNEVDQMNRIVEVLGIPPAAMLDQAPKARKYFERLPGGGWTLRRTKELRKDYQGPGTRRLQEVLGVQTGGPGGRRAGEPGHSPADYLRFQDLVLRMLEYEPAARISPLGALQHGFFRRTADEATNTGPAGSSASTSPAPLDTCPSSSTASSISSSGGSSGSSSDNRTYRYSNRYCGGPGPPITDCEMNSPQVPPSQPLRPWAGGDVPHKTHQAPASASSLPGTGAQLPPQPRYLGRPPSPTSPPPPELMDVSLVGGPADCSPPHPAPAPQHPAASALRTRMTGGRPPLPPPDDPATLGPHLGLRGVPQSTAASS

C[C@@H]1CN(c2cc(-c3nn(C)c4ccc(OC5(C)CC5)cc34)ncn2)C[C@H](C)O1 [MLi-2-NC]
inactive: [1]; [9] 67% | [2]; [9] 100% | [3]; [9] 100% | [4]; [9] 68% | [5]; [9] 100% | [6]; [9] 96% | [7]; [9] 75% | [8]; [9] 66%

C[C@@H]1CN(c2cc(-c3n[nH]c4ccc(OC5(C)CC5)cc34)ncn2)C[C@H](C)O1 [MLi-2]
inactive: [1]; [10] 79% | [2]; [10] 100% | [3]; [10] 93% | [4]; [10] 93% | [5]; [10] 98% | [6]; [10] 100% | [7]; [10] 76% | [8]; [10] 87%
